# Measurements from patent publication US4251520A, “Glucofuranose derivatives” (priority 1976, dated 1981).
# Like-named read-outs stand apart in the source and are kept apart here.
# How the values were obtained:
# spasm by acetylcholine = test: Antispasmodic activity in vitro, spasm by acetylcholine
# in vivo = conditions: mouse, in vivo, po
# edema induced by dextran = test: Anti-inflammatory activity, dextran-induced edema; type: in vivo, rat; conditions: po; for inhibition in vivo at 500 mg/kg: read-out: % inhibition of edema induced by dextran
# capillary permeability [1] = conditions: 500 mg/kg p.o. mouse
# granuloma = test: Granuloma cotton pellet test; conditions: for inhibition in vivo at 200 mg/kg: Rattus norvegicus, po, read-out: % inhibition of granuloma
# [2] = test system: edema induced by formalin; test: Anti-inflammatory activity, formalin-induced edema; type: in vivo, rat; conditions: po; for inhibition in vivo at 500 mg/kg: read-out: % inhibition of edema induced by formalin
# Antipyretic activity = type: in vivo, rat; conditions: for Antipyretic activity (potency in comparison with aspirin = 100): 400 mg/kg p.o. rat; for Antipyretic action (in words): rat, in vivo
# [3] = test system: edema induced by carrageenan; test: Anti-inflammatory activity, carrageenin-induced oedema; type: in vivo, rat; conditions: for inhibition in vivo at 500 mg/kg: po, read-out: % inhibition of edema induced by carrageenan
# Text: Beginning, therefore, with D-glucose, we have prepared 1,2:5,6-di-O-isopropylidene-α-D-glucofuranose (II): [drawing 2] as well as 1,2-O-isopropylidene-α-D-glucofuranose and 1,2-O-isopropylidene-3,5,6-tri-O-benzyl-α-D-glucofuranose (1; Glen W. L., Myers G. S., Grant G. A., J. Chem. Soc., 2568/1951; (2) Meyer A. S., Reichstein T., Helv. Chim. Acta, 29, 139/1946; (3) Huber G., Rossi A., Helv. Chim. Acta, 51, 1185/1968) and have compared these compounds with (I) for anti-inflammatory activity against carrageenin-induced oedema (500 mg/kg, p.o. in rats).
# spasm by histamine = test: Antispasmodic activity in vitro, spasm by histamine
# [4] = Analgesic activity, protection from writhing; type: in vivo, mouse; conditions: po, read-out: Analgesic activity, protection from writhing %
# [5] = Analgesic activity, hot plate test; type: in vivo, mouse; conditions: po, read-out: Analgesic activity, increase of reaction time %
# [6] = test system: spasms induced by histamine and acetylcholine; test: Antispasmodic activity tests in vitro (overall)
# capillary permeability [7] = test: Capillary permeability test
# [8] = Analgesic action (overall); conditions: mouse, in vivo
# mouse = test: in vivo; conditions: oral route, even at a dose of 4,000 mg./kg.
# [9] = background; cited from earlier work
# [10] = test system: oedema induced by carrageenin, dextran and formalin; test: Anti-inflammatory activity tests (oedema by carrageenin, dextran and formalin); type: in vivo; conditions: rat
# [11] = Preliminary pharmacological screening (overall); type: in vivo
# [12] = test system: edema induced by carrageenan; test: Anti-inflammatory activity, carrageenin-induced oedema; type: in vivo; conditions: po; at a dose of 200 mg/kg p.o., rat (footnote e)
# [13] = at a dose of 400 mg/kg p.o., mouse (footnote d)
# [14] = 500 mg/kg p.o. mouse, hot plate test
# [15] = at a dose of 200 mg/kg p.o., rat (footnote e)
SMILES,"Antispasmodic activity in vitro, ED50, inhib. of spasm by acetylcholine (spasm by acetylcholine)",LD50 (in vivo),inhibition in vivo at 200 mg/kg (granuloma),Antipyretic activity (potency in comparison with aspirin = 100) (Antipyretic activity),Antipyretic action (in words) (Antipyretic activity),"Antispasmodic activity in vitro, ED50, inhib. of spasm by histamine (spasm by histamine)",inhibition in vivo at 500 mg/kg (edema induced by dextran; 500 mg/kg p.o. rat),inhibition in vivo at 500 mg/kg ([2]; 500 mg/kg p.o. rat),inhibition in vivo at 500 mg/kg ([3]; 500 mg/kg p.o. rat),inhibition in vivo at 500 mg/kg ([4]; 500 mg/kg p.o. mouse),"change in vivo at 500 mg/kg [5, 14]",Oral toxicity / tolerance (in words) (mouse),"Capillary permeability, decrease % (capillary permeability [7]; 500 mg/kg p.o. mouse)",also measured
CC1(C)OCC(C2OC3OC(C)(C)OC3C2O)O1 (stereo not drawn),> 100 µg/mL,4000 mg/kg,0%,63%,present,> 100 µg/mL,,,,,,,,"inhibition in vivo at 500 mg/kg (edema induced by dextran; Rattus norvegicus): 0%; Capillary permeability, decrease % (capillary permeability [1]): 46%; inhibition in vivo at 500 mg/kg ([2]; Rattus norvegicus): 19%; inhibition in vivo at 500 mg/kg ([3]; Rattus norvegicus): 33%; Anti-inflammatory activity compared with (I), preliminary tests ([3]; carrageenin-induced oedema, 500 mg/kg, p.o. in rats): fully comparable with that of (I); inhibition in vivo at 500 mg/kg ([4]; Mus musculus): 20%; change in vivo at 500 mg/kg ([5]; Mus musculus): 0%"
"CC(=O)Oc1ccccc1C(=O)O [Aspirin, reference compound]",> 100 µg/mL,1000 mg/kg,12%,,,> 100 µg/mL,47%,29%,53%,100%,70%,,,"Antispasmodic activity (in words) [6]: inactive; Capillary permeability, decrease % (capillary permeability [7]; [13]): 73%"
"CCOC1O[C@H]([C@@H](COCc2ccccc2)OCc2ccccc2)[C@H](OCc2ccccc2)[C@H]1O (stereo partly drawn) [I, ethyl 3,5,6-tri-O-benzyl-D-glucofuranoside, reference compound]",30 µg/mL,> 4000 mg/kg,0%,9%,little or no activity,20 µg/mL,0%,14%,20%,0%,10%,well tolerated,48%,Analgesic action (in words) [8]: moderate or nil; Known pharmacological activity (in words) [9]: anti-inflammatory and anti-allergic activity
"C=CCOC1C(C2COC(C)(C)O2)OC2OC(C)(C)OC21 [IX, 3-O-allyl-1,2:5,6-di-O-isopropylidene-α-D-glucofuranose]",60 µg/mL,> 4000 mg/kg,16%,44%,retained,60 µg/mL,39%,29%,68%,20%,0%,well tolerated,43%,"Anti-inflammatory potency compared with aspirin and phenylbutazone (in words) [10]: as potent as or more potent than aspirin and phenylbutazone; Inhibition of oedema induced by carrageenin, dextran and formalin, compared with (I) (in words) [10]: clearly more active than (I); Activity against spasms produced by acetylcholine (in words) (spasm by acetylcholine): moderately active; Spectrum and potency of action in comparison with (I) (in words) [11]: analogous or even better spectrum and potency of action; Inhibitory activity in the granuloma cotton pellet test (in words) (granuloma; rat, in vivo): some inhibitory activity"
"CCCCC1C(=O)N(c2ccccc2)N(c2ccccc2)C1=O [Phenylbutazone, reference compound]",> 100 µg/mL,,31%,85%,,> 100 µg/mL,,,,100%,10%,,,"inhibition in vivo at 200 mg/kg [12]: 52%; inhibition in vivo at 200 mg/kg (edema induced by dextran; [15]): 15%; Antispasmodic activity (in words) [6]: inactive; inhibition in vivo at 200 mg/kg [2, 15]: 13%; Capillary permeability, decrease % (capillary permeability [7]; [13]): 75%"
CCCCCCCCCCCCCCCCOC1C(C2COC(C)(C)O2)OC2OC(C)(C)OC21 (stereo not drawn) [VIII],,> 4000 mg/kg,,0%,,,0%,0%,13%,20%,0%,well tolerated,22%,
"CC(=O)OC1C(C2COC(C)(C)O2)OC2OC(C)(C)OC21 [XII, 3-Acetyl-1,2:5,6-di-O-isopropylidene-α-D-glucofuranose]",> 100 µg/mL,> 4000 mg/kg,,0%,,> 100 µg/mL,0%,9%,21%,0%,20%,well tolerated,26%,
CC1(C)OCC(C2OC3OC(C)(C)OC3C2OCc2ccccc2)O1 (stereo not drawn) [XI],> 100 µg/mL,> 4000 mg/kg,,8%,,> 100 µg/mL,0%,21%,39%,20%,0%,well tolerated,29%,
